Values quoted from earlier work as cited in patent US20250161538A1, “POLYMER-BASED MATERIAL WITH ANTI-BACTERIAL PROPERTIES WITH IMPROVED MECHANICAL STRENGTH FOR DENTAL APPLICATIONS” (priority 2022, published 2025).

Tested on: adult rat pulp tissue
Conditions: in vivo, po

For `[Ag+]` [Ag ions, silver], the cytotoxic effect is listed as “induce cytotoxic effect”.
